What was measured:
Assay type in all cases: cell-based
Septoria tritici = Septoria tritici (leaf blotch), PDB microtiter plate, visual after 72 hrs; settings: single compound
Botrytis cinerea = Botrytis cinerea (gray mould), PDB microtiter plate, visual after 72 hrs; settings: alone
[1] = tested on: Monographella nivalis (syn. Microdochium nivale, Fusarium nivale); assay: Monographella nivalis (snow mould, foot rot of cereals), PDB microtiter plate, visual after 72 hrs; settings: applied alone
[2] = tested on: Mycosphaerella arachidis (y. Cercospora arachidicola); assay: Mycosphaerella arachidis (brown leaf spot of groundnut), PDB microtiter plate, visual after 5-6 days; settings: single compound

`CC(C)C1C2CCC1c1c(NC(=O)c3cn(C)nc3C(F)F)cccc12` (stereo not drawn) [Isopyrazam] was tested, and the “Activity (%)” value (Septoria tritici; 0.015625 ppm) was 0% and the “Activity (%)” value (Septoria tritici; 0.03125 ppm) was 20%.

In the case of `Cn1cc(C(=O)Nc2ccccc2-c2cc(F)c(F)c(F)c2)c(C(F)F)n1` [Fluxapyroxad], the “Activity (%)” value (Septoria tritici; 0.015625 ppm) is reported as 0%, the “Activity (%)” value (Septoria tritici; 0.03125 ppm) is reported as 0% and the “Activity (%)” value (Septoria tritici; 0.0625 ppm) is reported as 20%. For the same compound, the “Activity (%)” value (Botrytis cinerea; rate 0.015625 ppm) was 20%, the “Activity (%)” value (Botrytis cinerea; rate 0.0625 ppm) was 50% and the “Activity (%)” value (Botrytis cinerea; rate 0.125 ppm) was 70%.

`CC/C=C\CC1=C(C)CCC1=O` [cis-Jasmone] was tested, and the “Activity (%)” value ([1]; 0.625 ppm) was 0%, the “Activity (%)” value ([1]; 1.25 ppm) was 0% and the “Activity (%)” value ([1]; 2.5 ppm) was 0%. For the same compound, the “Activity (%)” value ([1]; 5 ppm) was 0%, the “Activity (%)” value ([1]; rate 0.15625 ppm) was 0% and the “Activity (%)” value ([1]; rate 0.3125 ppm) was 0%. For the same compound, the “Activity (%)” value ([1]; rate 0.625 ppm) was 0%, the “Activity (%)” value ([1]; rate 1.25 ppm) was 0% and the “Activity (%)” value (Botrytis cinerea; rate 0.625 ppm) was 0%. For the same compound, the “Activity (%)” value (Botrytis cinerea; rate 1.25 ppm) was 0%, the “Activity (%)” value (Botrytis cinerea; rate 2.5 ppm) was 0% and the “Activity (%)” value (Botrytis cinerea; rate 5 ppm) was 0%.

For `Cn1cc(C(=O)Nc2ccccc2C2CC2C2CC2)c(C(F)F)n1` (stereo not drawn) [Sedaxan], the “Activity (%)” value ([2]; 0.00390625 ppm) was 0%, the “Activity (%)” value ([2]; 0.015625 ppm) was 0% and the “Activity (%)” value ([2]; 0.03125 ppm) was 0%. The “Activity (%)” value ([2]; 0.0625 ppm) was 0% and the “Activity (%)” value ([2]; 0.125 ppm) was 0%.

`O=C(NCCc1ncc(C(F)(F)F)cc1Cl)c1ccccc1C(F)(F)F` [Fluopyram] gave an inhibition at 0.125 ppm (Septoria tritici; Zymoseptoria tritici, 0.125 ppm) of 0% and an inhibition at 0.25 ppm (Septoria tritici; Zymoseptoria tritici, 0.25 ppm, read-out: Activity (%)) of 50%.

Abamectin was tested, and the “Activity (%)” value ([1]; 5 ppm) was 0%, the “Activity (%)” value ([1]; 10 ppm) was 0% and the “Activity (%)” value ([1]; 20 ppm) was 50%. The “Activity (%)” value ([1]; rate 0.15625 ppm) was 0%, the “Activity (%)” value ([1]; rate 0.3125 ppm) was 0% and the “Activity (%)” value ([1]; rate 0.625 ppm) was 0%. For the same compound, the “Activity (%)” value ([1]; rate 1.25 ppm) was 0%, the “Activity (%)” value ([1]; rate 2.5 ppm) was 0% and the “Activity (%)” value (Botrytis cinerea; rate 1.25 ppm) was 0%. For the same compound, the “Activity (%)” value (Botrytis cinerea; rate 2.5 ppm) was 0%, the “Activity (%)” value (Botrytis cinerea; rate 5 ppm) was 0% and the “Activity (%)” value (Botrytis cinerea; rate 10 ppm) was 0%. For the same compound, the “Activity (%)” value (Botrytis cinerea; rate 20 ppm) was 0%.

For `CC1(C)CCC(Cc2ccc(Cl)cc2)C1(O)Cn1cncn1` (stereo not drawn) [Metconazole], the inhibition at 0.03125 ppm (Septoria tritici; Zymoseptoria tritici, 0.03125 ppm) was 0%, the inhibition at 0.0625 ppm (Septoria tritici; Zymoseptoria tritici, 0.0625 ppm) was 70% and the “Activity (%)” value (Septoria tritici; 0.0625 ppm) was 50%. The inhibition at 0.0625 ppm ([1]; Monographella nivalis, 0.0625 ppm) was 0%, the inhibition at 0.125 ppm ([1]; Monographella nivalis, 0.125 ppm) was 0% and the inhibition at 0.25 ppm ([1]; Monographella nivalis, 0.25 ppm) was 0%. It also gave an inhibition at 0.5 ppm ([1]; Monographella nivalis, 0.5 ppm) of 0%, an inhibition at 1 ppm ([1]; Monographella nivalis, 1 ppm) of 20% and an inhibition at 0.015625 ppm ([1]; Monographella nivalis, rate 0.015625 ppm) of 0%. The inhibition at 0.03125 ppm ([1]; Monographella nivalis, rate 0.03125 ppm) was 0%, the inhibition at 0.0625 ppm ([1]; Monographella nivalis, rate 0.0625 ppm) was 0% and the inhibition at 0.125 ppm ([1]; Monographella nivalis, rate 0.125 ppm) was 0%. The inhibition at 0.25 ppm ([1]; Monographella nivalis, rate 0.25 ppm) was 0%, the inhibition at 0.5 ppm ([1]; Monographella nivalis, rate 0.5 ppm) was 0% and the inhibition at 1 ppm ([1]; Monographella nivalis, rate 1 ppm) was 20%. It also gave an inhibition at 0.015625 ppm (Botrytis cinerea; Botrytis cinerea, rate 0.015625 ppm) of 0% and an inhibition at 0.03125 ppm (Botrytis cinerea; Botrytis cinerea, rate 0.03125 ppm, read-out: Activity (%)) of 0%.

`O=C(O)COc1ccc(Cl)cc1Cl` [2,4-D] was tested, and the “Activity (%)” value ([1]; 0.625 ppm) was 0%, the “Activity (%)” value ([1]; 1.25 ppm) was 0% and the “Activity (%)” value ([1]; 2.5 ppm) was 0%. For the same compound, the “Activity (%)” value ([1]; 5 ppm) was 0%, the “Activity (%)” value ([1]; 10 ppm) was 0% and the “Activity (%)” value ([1]; rate 0.3125 ppm) was 0%. For the same compound, the “Activity (%)” value ([1]; rate 0.625 ppm) was 0%, the “Activity (%)” value ([1]; rate 1.25 ppm) was 0% and the “Activity (%)” value ([1]; rate 2.5 ppm) was 0%. The “Activity (%)” value (Botrytis cinerea; rate 2.5 ppm) was 0%, the “Activity (%)” value (Botrytis cinerea; rate 5 ppm) was 0% and the “Activity (%)” value (Botrytis cinerea; rate 10 ppm) was 0%.

For `C#CCOc1ccc(CCNC(=O)C(OCC#C)c2ccc(Cl)cc2)cc1OC` (stereo not drawn) [Mandipropamid], the “Activity (%)” value (Septoria tritici; 0.5 ppm) was 70%, the “Activity (%)” value ([1]; rate 0.03125 ppm) was 0% and the “Activity (%)” value ([1]; rate 0.0625 ppm) was 0%. For the same compound, the “Activity (%)” value (Botrytis cinerea; rate 5 ppm) was 0%, the “Activity (%)” value (Botrytis cinerea; rate 10 ppm) was 0% and the “Activity (%)” value (Botrytis cinerea; rate 20 ppm) was 0%.

— patent US9326513B2, “Fungicidal compositions” (Syngenta Participations AG, priority 2011, dated 2016)
